Measurements from patent US8110660B2, “Soluble ENPP4 protein” (Ono Pharmaceutical Co., Ltd., priority 2004, dated 2012).
One block for each compound: values may come before it.

Columns and labels:
Assay type in all cases: biochemical
[1] = molecular target: T1, purified soluble type ENPP5 protein (Homo sapiens, UniProt Q9UJA9); assay: Identification of nucleic acids to be ENPP5 substrate (HPLC); details: 200 μM nucleic acid, pH 7.5, 37° C., 2, 5 or 8 hours, FIG. 15
T1 construct: signal peptide; base No. 1 to 66, mature protein; base No. 67 to 1287; made in house; host or cells: HEK293T (secreted into culture supernatant, His-Trap purified)
T1 sequence (Q9UJA9 23-429): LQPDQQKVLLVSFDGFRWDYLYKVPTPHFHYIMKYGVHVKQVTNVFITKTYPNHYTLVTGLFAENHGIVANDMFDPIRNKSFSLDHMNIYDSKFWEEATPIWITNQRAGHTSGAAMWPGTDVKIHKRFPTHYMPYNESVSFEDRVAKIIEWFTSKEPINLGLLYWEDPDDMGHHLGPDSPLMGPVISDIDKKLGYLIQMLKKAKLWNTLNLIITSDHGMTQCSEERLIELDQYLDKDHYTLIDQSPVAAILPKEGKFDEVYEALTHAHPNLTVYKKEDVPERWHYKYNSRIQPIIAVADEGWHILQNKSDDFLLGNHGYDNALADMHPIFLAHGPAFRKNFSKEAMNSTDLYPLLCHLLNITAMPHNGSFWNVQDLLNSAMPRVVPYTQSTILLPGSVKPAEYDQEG
Procedure: (§1) 0.5 μg of the purified soluble type ENPP5 protein was mixed in 500 μL of assay buffer (20 mM HEPES, 140 mM NaCl, 5 mM KCl, 10 mM Glucose, pH 7.5), and then, each kind of nucleic acids were added thereto so that its final concentration became 200 μM. The mixture was performed at 37° C. for 2, 5, or 8 hours. Then, by using HPLC (Unison-UKC18 reversed-phase column 30×2 mm, manufactured by Imtakt Co., Ltd.) (mobile phase: 50 mM sodium phosphate buffer (pH 6.4), 5 mM tetrabutylammonium hydrogen sulfate, 1 mM EDTA, 2-30% acetonitrile), the nucleic acids were separated from the reacted solution, and the substrates and the reacted products were quantitatively determined.

[2] = molecular target: T2, purified soluble type ENPP4 protein (Homo sapiens, UniProt Q9Y6X5); assay: Identification of nucleic acids to be ENPP4 substrate (HPLC); details: for degradation by ENPP4 (NMP detected as reacted product) / degradation amount / activity of degrading by ENPP4: 200 μM nucleic acid, HPLC, FIG. 15; for degradation by ENPP4 (NMP detected as reacted product): pH 8.5, 37° C., 2, 5 or 8 hours
T2 construct: signal peptide; base No. 1 to 45, mature protein; base No. 46 to 1212; made in house; host or cells: HEK293T (secreted into culture supernatant, His-Trap purified)
T2 sequence (Q9Y6X5 16-404): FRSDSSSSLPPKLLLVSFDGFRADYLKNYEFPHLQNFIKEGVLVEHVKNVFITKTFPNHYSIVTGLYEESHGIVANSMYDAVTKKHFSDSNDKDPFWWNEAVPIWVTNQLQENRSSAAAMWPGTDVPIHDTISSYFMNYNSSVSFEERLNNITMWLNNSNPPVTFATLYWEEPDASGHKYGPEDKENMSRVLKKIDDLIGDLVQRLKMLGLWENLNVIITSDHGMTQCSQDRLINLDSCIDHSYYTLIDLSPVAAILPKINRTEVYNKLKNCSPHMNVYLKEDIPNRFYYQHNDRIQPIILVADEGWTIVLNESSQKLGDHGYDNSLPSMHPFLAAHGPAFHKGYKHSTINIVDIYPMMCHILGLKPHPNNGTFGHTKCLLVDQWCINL
Procedure: as §1, with “ENPP4” for “ENPP5”, “8.5),” for “7.5),”, “kept” for “performed”

[3] = molecular target: T1, purified soluble type ENPP5 protein; assay: Inhibition of light-emitting substrate degradation by soluble type ENPP5 protein
Procedure: 0.2 μg of the purified soluble type ENPP5 protein was mixed in 90 μL of assay buffer (20 mM HEPES, 140 mM NaCl, 5 mM KCl, 10 mM Glucose, pH 7.5), and 10 μL of each of 10 mM pNP-PP and a solution of a test compound was added thereto, and then was kept at 37° C. for 2 hours. Then, absorption of light of 405 nm was measured and thereby, the amount of p-nitorphenol was quantitatively determined and thereby the inhibitory activity of […] pNP-PP degradation of each of the test compound was examined. By using Neurotransmitter Library Plate 10 (Purinergic & adenosines) ver. 2 (manufactured by BIOMOL Inc.) as test compounds, and the inhibitory activity of pNP-TMP degradation of each of 1 mM compounds was measured and, 70% or more of the inhibitory activity was detected in 2-Methyl-ATP, and 80% or more of the inhibitory activity was detected in ADP, UDP, and GDP.

[4] = molecular target: T2, purified soluble type ENPP4 protein; assay: Inhibition of pNP-TMP or pNP-PP degradation by soluble type ENPP4 protein
Procedure: 0.2 μg of the purified soluble type ENPP4 protein was mixed in 90 μL of assay buffer (20 mM HEPES, 140 mM NaCl, 5 mM KCl, 10 mM Glucose, pH 8.5), and 10 μL of each of 10 mM pNP-TMP or pNP-PP and a solution of a test compound was added thereto, and then was kept at 37° C. for 2 hours. Then, absorption of light of 405 nm was measured and thereby, the amount of p-nitorphenol was quantitatively determined and thereby the inhibitory activity of pNP-TMP or pNP-PP degradation of each test compound was examined. By using pNP-TMP and Neurotransmitter Library Plate 10 (Purinergic & adenosines) ver. […] Moreover, 60% or more of the inhibitory activity was detected in CDP-Choline, and 40% or more of the inhibitory activity was detected in P1P3-DiAdenosine-triphosphate (AP(3)A), P1P6-DiAdenosine-hexaphosphate (AP(6)A).

[5] = molecular target: T3, purified soluble type ENPP6 protein (Homo sapiens, UniProt Q6UWR7); assay: Inhibition of light-emitting substrate degradation by soluble type ENPP6 protein
T3 construct: signal peptide; base No. 1 to 66, mature protein; base No. 67 to 1269; made in house; host or cells: HEK293T (secreted into culture supernatant, His-Trap purified)
T3 sequence (Q6UWR7 23-423): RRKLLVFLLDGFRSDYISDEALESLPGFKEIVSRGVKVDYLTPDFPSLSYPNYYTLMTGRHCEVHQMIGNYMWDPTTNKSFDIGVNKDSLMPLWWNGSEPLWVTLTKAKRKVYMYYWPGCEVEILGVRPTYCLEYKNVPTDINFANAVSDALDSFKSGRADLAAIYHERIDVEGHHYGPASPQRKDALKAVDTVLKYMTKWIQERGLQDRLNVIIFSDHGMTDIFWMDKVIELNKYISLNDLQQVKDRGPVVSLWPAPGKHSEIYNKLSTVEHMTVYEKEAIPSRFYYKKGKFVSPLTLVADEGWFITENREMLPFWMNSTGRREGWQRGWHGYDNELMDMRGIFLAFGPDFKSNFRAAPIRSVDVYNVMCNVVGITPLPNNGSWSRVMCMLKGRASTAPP
Procedure: 0.2 μg of the purified soluble type ENPP6 protein was mixed in 90 μL of assay buffer (20 mM HEPES, 140 mM NaCl, 5 mM KCl, 1 mM CaCl2, 1 mM MgCl2, 10 mM Glucose, pH 9.6), and 10 μL of each of 10 mM pNP-PP and a solution of a test compound was added thereto, and was kept at 37° C. for 2 hours. Then, absorption of light of 405 nm was measured and thereby, the amount of p-nitorphenol was quantitatively determined and thereby the inhibitory activity of […] degradation of each of the test compounds was examined. By using Neurotransmitter Library Plate 10 (Purinergic & adenosines) ver. 2, Bioactive Lipid Library ver. 3 (manufactured by BIOMOL Inc.), and various lysophospholipids as test compounds, the inhibitory activity of pNP-PP degradation was measured and, 80% or more of the inhibitory activity was detected in Glycerophosphorilcholine, and 70% or more of the inhibitory activity in Lysophosphatidylcholine, 1-Methyladenosine, 3-Deazaadenosine, ATP, and ADP(1 mM), and 60% or more of the inhibitory activity in N6-Methyladenosine, N6-Methyl-2′-deoxy-adenosine, S-Adenosyl-L-Homocysteine, and 2-MethylthioATP.

Compound: Nc1ncnc2c1ncn2[C@@H]1O[C@H](COP(=O)(O)OP(=O)(O)OP(=O)(O)OP(=O)(O)OC[C@H]2O[C@@H](n3cnc4c(N)ncnc43)[C@H](O)[C@@H]2O)[C@@H](O)[C@H]1O [AP(4)A, P1P4-DiAdenosine-tetraphosphate]
degradation amount / activity of degrading by ENPP4 [2]: lower than the activity of degrading Ap(3)A
degradation by ENPP4 (NMP detected as reacted product) [2]: degraded by ENPP4

Compound: Nc1ncnc2c1ncn2[C@@H]1O[C@H](COP(=O)(O)OP(=O)(O)OP(=O)(O)OC[C@H]2O[C@@H](n3cnc4c(N)ncnc43)[C@H](O)[C@@H]2O)[C@@H](O)[C@H]1O [AP(3)A, P1P3-DiAdenosine-triphosphate]
degradation by ENPP4 (NMP detected as reacted product) [2]: degraded by ENPP4

Compound: C[N+](C)(C)CCOP(=O)([O-])OC[C@H](O)CO [Glycerophosphorilcholine]
inhibitory activity of pNP-PP degradation ([5]; pH 9.6, 37° C., 2 hours, 1 mM printed for ADP): ≥ 80%

Compound: C[N+](C)(C)CCOP(=O)(O)OP(=O)([O-])OC[C@H]1O[C@@H](n2ccc(N)nc2=O)[C@H](O)[C@@H]1O [CDP-Choline]
degradation by ENPP5 (NMP detected as reacted product) [1]: degraded by ENPP5
inhibition at 1000 µM ([4]; 1 mM compound, pH 8.5, 37° C., 2 hours, FIG. 11 (pNP-TMP), read-out: inhibitory activity of pNP-TMP or pNP-PP degradation): ≥ 60%
degradation by ENPP4 (NMP detected as reacted product) [2]: degraded by ENPP4

Compound: diadenosine 5-phosphate [Ap(5)A]
degradation by ENPP4 (NMP detected as reacted product) [2]: degraded by ENPP4

Compound: Lysophosphatidylcholine
concentration dependence of inhibitory activity of pNP-TMP degradation by ENPP6 ([5]; FIG. 14): inhibitory activity of pNP-TMP degradation depending on concentration of LPC was detected

Compound: Nc1ncnc2c1ncn2[C@@H]1O[C@H](COP(=O)(O)OP(=O)(O)O)[C@@H](O)[C@H]1O [ADP]
degradation by ENPP5 (NMP detected as reacted product) [1]: degraded by ENPP5
degradation by ENPP4 (NMP detected as reacted product) [2]: degraded by ENPP4

Compound: Nc1ncnc2c1ncn2[C@@H]1O[C@H](COP(=O)(O)OP(=O)(O)OP(=O)(O)OP(=O)(O)OP(=O)(O)OP(=O)(O)OC[C@H]2O[C@@H](n3cnc4c(N)ncnc43)[C@H](O)[C@@H]2O)[C@@H](O)[C@H]1O [AP(6)A, P1P6-DiAdenosine-hexaphosphate]
degradation by ENPP4 (NMP detected as reacted product) [2]: degraded by ENPP4

Continued, in another order:

degradation by ENPP5 (NMP detected as reacted product) [1]: degraded by ENPP5
degradation by ENPP4 (NMP detected as reacted product) [2]: degraded by ENPP4
Compound: O=c1ccn([C@@H]2O[C@H](COP(=O)(O)OP(=O)(O)O)[C@@H](O)[C@H]2O)c(=O)[nH]1 [UDP]

degradation amount / activity of degrading by ENPP4 [2]: small
degradation by ENPP4 (NMP detected as reacted product) [2]: degraded by ENPP4
inhibitory activity against ENPP4 (concluded from small degradation and high inhibition) ([2]; conclusion from Examples 16 and 19): has an inhibitory activity against ENPP4
Compound: Nc1ncnc2c1ncn2[C@@H]1O[C@H](COP(=O)(O)OP(=O)(O)OP(=O)(O)O)[C@@H](O)[C@H]1O [ATP]
concentration dependence of inhibitory activity of pNP-PC degradation by ENPP5 ([3]; FIG. 13): inhibitory activity of pNP-PC degradation depending on concentration of ATP was detected
concentration dependence of inhibitory activity against ENPP4 ([4]; FIG. 12, pNP-TMP degradation): inhibitory activity depending on concentration of ATP was detected

degradation by ENPP4 (NMP detected as reacted product) [2]: degraded by ENPP4
Compound: O=c1ccn([C@@H]2O[C@H](COP(=O)(O)OP(=O)(O)OP(=O)(O)O)[C@@H](O)[C@H]2O)c(=O)[nH]1 [UTP]

degradation by ENPP4 (NMP detected as reacted product) [2]: degraded by ENPP4
Compound: Nc1ccn([C@@H]2O[C@H](COP(=O)(O)OP(=O)(O)O)[C@@H](O)[C@H]2O)c(=O)n1 [CDP]

degradation by ENPP4 (NMP detected as reacted product) [2]: degraded by ENPP4
Compound: Nc1ccn([C@@H]2O[C@H](COP(=O)(O)OP(=O)(O)OP(=O)(O)O)[C@@H](O)[C@H]2O)c(=O)n1 [CTP]

inhibitory activity of pNP-TMP degradation ([3]; 1 mM compound, pH 7.5, 37° C., 2 hours): ≥ 70%
Compound: Cc1nc(N)c2ncn(C3OC(COP(=O)(O)OP(=O)(O)OP(=O)(O)O)C(O)C3O)c2n1 (centres unmarked) [2-Methyl-ATP]
